# Laboratory results reported in US20240400564A1 (Syndax Pharmaceuticals, Inc, priority 2021, published 2024).
# Target: hERG (Homo sapiens, UniProt Q12809)
# Experiment: Patch clamp assay (hERG tail currents, whole-cell)
# Chain of hERG (Q12809 whole entry): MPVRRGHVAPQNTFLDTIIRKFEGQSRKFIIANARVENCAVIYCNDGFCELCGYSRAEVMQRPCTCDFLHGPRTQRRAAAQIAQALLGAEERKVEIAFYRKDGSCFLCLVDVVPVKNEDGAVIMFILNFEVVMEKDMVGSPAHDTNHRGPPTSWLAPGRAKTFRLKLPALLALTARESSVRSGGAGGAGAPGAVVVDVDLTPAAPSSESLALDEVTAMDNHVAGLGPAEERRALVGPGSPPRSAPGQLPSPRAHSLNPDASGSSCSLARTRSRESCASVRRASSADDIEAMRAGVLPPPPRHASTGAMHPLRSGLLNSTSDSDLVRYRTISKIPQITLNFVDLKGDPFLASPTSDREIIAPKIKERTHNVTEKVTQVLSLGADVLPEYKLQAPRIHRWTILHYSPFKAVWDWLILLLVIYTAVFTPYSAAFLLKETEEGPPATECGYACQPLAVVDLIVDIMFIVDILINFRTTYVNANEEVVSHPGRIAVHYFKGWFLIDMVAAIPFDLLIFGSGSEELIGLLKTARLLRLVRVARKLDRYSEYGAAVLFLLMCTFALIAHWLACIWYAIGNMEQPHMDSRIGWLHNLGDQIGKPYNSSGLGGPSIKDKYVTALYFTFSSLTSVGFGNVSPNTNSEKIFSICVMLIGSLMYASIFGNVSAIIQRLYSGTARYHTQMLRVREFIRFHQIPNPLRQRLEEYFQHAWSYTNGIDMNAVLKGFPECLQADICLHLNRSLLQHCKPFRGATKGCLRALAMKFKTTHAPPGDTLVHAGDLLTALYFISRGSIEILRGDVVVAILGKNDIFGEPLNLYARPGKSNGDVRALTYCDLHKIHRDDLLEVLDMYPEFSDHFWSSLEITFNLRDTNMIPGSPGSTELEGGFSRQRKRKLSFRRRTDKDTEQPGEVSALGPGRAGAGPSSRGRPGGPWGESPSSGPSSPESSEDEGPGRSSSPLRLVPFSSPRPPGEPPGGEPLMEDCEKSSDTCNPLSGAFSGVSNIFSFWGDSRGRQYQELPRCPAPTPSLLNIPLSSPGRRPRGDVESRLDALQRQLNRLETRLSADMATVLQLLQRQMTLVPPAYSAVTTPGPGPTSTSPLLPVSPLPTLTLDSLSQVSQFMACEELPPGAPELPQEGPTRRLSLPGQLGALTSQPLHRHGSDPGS
Structure (SMILES),hERG % Remaining (30 μM compound),hERG % Remaining (10 μM compound),hERG % Remaining (100 μM compound)
"CC(C)N(C(=O)c1cc(F)ccc1Oc1nncnc1N1CC2(CCN(C[C@@H]3CC[C@@H](NS(=O)(=O)N4CCC4)CO3)CC2)C1)C(C)C [Example 199, 2-((5-(7-(((2S,5R)-5-(Azetidine-1-sulfonamido)tetrahydro-2H-pyran-2-yl)methyl)-2,7-diazaspiro[3.5]nonan-2-yl)-1,2,4-triazin-6-yl)oxy)-5-fluoro-N,N-diisopropylbenzamide]",+++ (≥66%),–,–
"CCN(C(=O)c1cc(F)ccc1Oc1cncnc1N1CC2(CCN(C[C@@H]3CC[C@@H](NS(=O)(=O)N4CCOCC4)CO3)CC2)C1)C(C)C [Example 64, N-Ethyl-5-fluoro-N-isopropyl-2-((4-(7-(((2S,5R)-5-(morpholine-4-sulfonamido)tetrahydro-2H-pyran-2-yl)methyl)-2,7-diazaspiro[3.5]nonan-2-yl)pyrimidin-5-yl)oxy)benzamide]",++ (233% and ≤66%),+++ (≥66%),–
"CC(C)N(CC(F)(F)F)C(=O)c1cc(F)ccc1Oc1cncnc1N1CC2(CCN(C[C@@H]3CC[C@@H](NS(=O)(=O)N(C)C)CO3)CC2)C1 [Example 107, 2-((4-(7-(((2S,5R)-5-((N,N-Dimethylsulfamoyl)amino)tetrahydro-2H-pyran-2-yl)methyl)-2,7-diazaspiro[3.5]nonan-2-yl)pyrimidin-5-yl)oxy)-5-fluoro-N-isopropyl-N-(2,2,2-trifluoroethyl)benzamide]",++ (233% and ≤66%),+++ (≥66%),–
"CC(C)N(C(=O)c1cc(F)ccc1Oc1cncnc1N1CC2(CCN(C[C@@H]3CC[C@@H](NS(=O)(=O)N4CCC4)CO3)CC2)C1)C1COC1 [Example 248, 2-((4-(7-(((2S,5R)-5-(Azetidine-1-sulfonamido)tetrahydro-2H-pyran-2-yl)methyl)-2,7-diazaspiro[3.5]nonan-2-yl)pyrimidin-5-yl)oxy)-5-fluoro-N-isopropyl-N-(oxetan-3-yl)benzamide]",+++ (≥66%),–,–
"CC(C)N(CCC#N)C(=O)c1cc(F)ccc1Oc1cncnc1N1CC2(CCN(C[C@@H]3CC[C@@H](NS(=O)(=O)N(C)C)CO3)CC2)C1 [Example 183, N-(2-Cyanoethyl)-2-((4-(7-(((2S,5R)-5-((N,N-dimethylsulfamoyl)amino)tetrahydro-2H-pyran-2-yl)methyl)-2,7-diazaspiro[3.5]nonan-2-yl)pyrimidin-5-yl)oxy)-5-fluoro-N-isopropylbenzamide]",+++ (≥66%),–,–
"CC(C)N(C(=O)c1cc(F)ccc1Oc1nncnc1N1CC2(CCN(C[C@@H]3CC[C@@H](NS(=O)(=O)C4CC4)CO3)CC2)C1)C(C)C [Example 196, 2-((5-(7-(((2S,5R)-5-(Cyclopropanesulfonamido)tetrahydro-2H-pyran-2-yl)methyl)-2,7-diazaspiro[3.5]nonan-2-yl)-1,2,4-triazin-6-yl)oxy)-5-fluoro-N,N-diisopropylbenzamide]",+++ (≥66%),–,–
"CCN(CC)S(=O)(=O)N[C@@H]1CC[C@@H](CN2CCC3(CC2)CN(c2ncncc2Oc2ccc(F)cc2C(=O)N(C(C)C)[C@H]2CCOC2)C3)OC1 [Example 175, 2-((4-(7-(((2S,5R)-5-((N,N-Diethylsulfamoyl)amino)tetrahydro-2H-pyran-2-yl)methyl)-2,7-diazaspiro[3.5]nonan-2-yl)pyrimidin-5-yl)oxy)-5-fluoro-N-isopropyl-N-((S)-tetrahydrofuran-3-yl)benzamide]",+ (<33%),++ (233% and ≤66%),–
"CCN(CC)S(=O)(=O)N[C@@H]1CC[C@@H](CN2CCC3(CC2)CN(c2ncncc2Oc2ccc(F)cc2C(=O)N(C(C)C)C2CC(F)(F)C2)C3)OC1 [Example 114, 2-((4-(7-(((2S,5R)-5-((N,N-Diethylsulfamoyl)amino)tetrahydro-2H-pyran-2-yl)methyl)-2,7-diazaspiro[3.5]nonan-2-yl)pyrimidin-5-yl)oxy)-N-(3,3-difluorocyclobutyl)-5-fluoro-N-isopropylbenzamide]",+ (<33%),+ (<33%),–
"CC(C)N(CC#N)C(=O)c1cc(F)ccc1Oc1cncnc1N1CC2(CCN(C[C@@H]3CC[C@@H](NS(=O)(=O)N(C)C)CO3)CC2)C1 [Example 181, N-(Cyanomethyl)-2-((4-(7-(((2S,5R)-5-((N,N-dimethylsulfamoyl)amino)tetrahydro-2H-pyran-2-yl)methyl)-2,7-diazaspiro[3.5]nonan-2-yl)pyrimidin-5-yl)oxy)-5-fluoro-N-isopropylbenzamide]",+++ (≥66%),–,–
"CCN(C(=O)c1cc(F)ccc1Oc1cncnc1N1CC2(CCN(C[C@@H]3CC[C@@H](NS(=O)(=O)NC)CO3)CC2)C1)C(C)C [Example 76, N-Ethyl-5-fluoro-N-isopropyl-2-((4-(7-(((2S,5R)-5-((N-methylsulfamoyl)amino)tetrahydro-2H-pyran-2-yl)methyl)-2,7-diazaspiro[3.5]nonan-2-yl)pyrimidin-5-yl)oxy)benzamide]",+++ (≥66%),+++ (≥66%),–
"CC(C)N(C)C(=O)c1cc(F)ccc1Oc1cncnc1N1CC2(CCN(C[C@@H]3CC[C@@H](NS(=O)(=O)N4CCC4)CO3)CC2)C1 [Example 138, 2-((4-(7-(((2S,5R)-5-(Azetidine-1-sulfonamido)tetrahydro-2H-pyran-2-yl)methyl)-2,7-diazaspiro[3.5]nonan-2-yl)pyrimidin-5-yl)oxy)-5-fluoro-N-isopropyl-N-methylbenzamide]",+++ (≥66%),–,–
"CC(C)N(C(=O)c1cc(F)ccc1Oc1cncnc1N1CC2(CCN(C[C@@H]3CC[C@@H](NS(=O)(=O)C4CC4)CO3)CC2)C1)C1CC(F)(F)C1 [Example 111, 2-((4-(7-(((2S,5R)-5-(Cyclopropanesulfonamido)tetrahydro-2H-pyran-2-yl)methyl)-2,7-diazaspiro[3.5]nonan-2-yl)pyrimidin-5-yl)oxy)-N-(3,3-difluorocyclobutyl)-5-fluoro-N-isopropylbenzamide]",+ (<33%),++ (233% and ≤66%),–
"C[C@@H]1COC[C@@H](C)N1C(=O)c1cc(F)ccc1Oc1cncnc1N1CC2(CCN(C[C@@H]3CC[C@@H](NS(=O)(=O)NCC4CC4)CO3)CC2)C1 [Example 158, (Cyclopropylmethyl)({[(3R,6S)-6-{[2-(5-{2-[(3R,5R)-3,5-dimethylmorpholine-4-carbonyl]-4-fluorophenoxy}pyrimidin-4-yl)-2,7-diazaspiro[3.5]nonan-7-yl]methyl}oxan-3-yl]sulfamoyl})amine]",+++ (≥66%),–,–
"CCNS(=O)(=O)N[C@@H]1CC[C@@H](CN2CCC3(CC2)CN(c2ncncc2Oc2ccc(F)cc2C(=O)N2[C@H](C)COC[C@H]2C)C3)OC1 [Example 125, {[(3R,6S)-6-{[2-(5-{2-[(3R,5R)-3,5-Dimethylmorpholine-4-carbonyl]-4-fluorophenoxy}pyrimidin-4-yl)-2,7-diazaspiro[3.5]nonan-7-yl]methyl}oxan-3-yl]sulfamoyl}(ethyl)amine]",+++ (≥66%),–,–
"CC(C)N(C(=O)c1cc(F)ccc1Oc1cncnc1N1CC2(CCN(C[C@@H]3CC[C@@H](NS(=O)(=O)N(C)C)CO3)CC2)C1)[C@@H]1CCOC1 [Example 167, 2-((4-(7-(((2S,5R)-5-((N,N-Dimethylsulfamoyl)amino)tetrahydro-2H-pyran-2-yl)methyl)-2,7-diazaspiro[3.5]nonan-2-yl)pyrimidin-5-yl)oxy)-5-fluoro-N-isopropyl-N-((R)-tetrahydrofuran-3-yl)benzamide]",+++ (≥66%),–,+++ (≥66%)
